# What was measured:
# Assay type in all cases: cell-based
# MIA PaCa-2 cells [1] = assay: KP372-1 + BMN 673 combination survival / synergy (CompuSyn); details: Fa=0.9; 0.075 μM KP372-1 + 1 μM BMN 673 in combination
# Protocol: DNA content assay: A modified cell survival assay measuring DNA content over ˜7-day period was utilized. Cells were seeded at 10,000 cells/well in 48-well plates in 0.5 mL of media. The next day, media were aspirated and replaced with 0.5 mL media containing the indicated concentrations of KP372-1 (μM) alone or in combination with 50 μM DIC. The cells were exposed for 2 hours (2 h) and the media were again aspirated and replaced with fresh media (without KP372-1). The cells were then allowed to grow for ˜7 days or until control samples became confluent. Cells were then lysed in 250 μl dI water, then freeze-thawed followed by suspension in 0.5 mL 1× TNE buffer containing Hoechst 33258 fluorescent dye. The DNA content was determined by measuring florescence signal using a Victor X5 plate reader. Fluorescence values of treated samples were normalized to that of control samples and plotted as means±SEM for treated over control (i.e., DMSO) treated (T/C) samples. […]
# Synergy calculations: Drug synergy was calculated using CompuSyn 1.0 software (www.combosyn.com). […] Then, cell survival was assessed via DNA content assay similarly to as described above. […] Dose-Reduction Index (DRI) values were calculated using the Chou-Talalay method. Briefly, DRI values are calculated using the following equation: DRI=(Dx)1/(D)1 where (Dx)1 is the dose of the drug alone and (D)1 is the dose of the drug in combination. […]
# MIA PaCa-2 cells [2] = assay: DNA content assay (relative survival), MIA PaCa-2; details: 2 h
# Protocol: (§1) DNA content assay: A modified cell survival assay measuring DNA content over ˜7-day period was utilized. Cells were seeded at 10,000 cells/well in 48-well plates in 0.5 mL of media. […] The cells were exposed for 2 hours (2 h) and the media were again aspirated and replaced with fresh media (without KP372-1). The cells were then allowed to grow for ˜7 days or until control samples became confluent. […] The DNA content was determined by measuring florescence signal using a Victor X5 plate reader. Fluorescence values of treated samples were normalized to that of control samples and plotted as means±SEM for treated over control (i.e., DMSO) treated (T/C) samples. The reported values are the results of the following sample sizes for KP372-1±DIC: MIA PaCa-2 concentration (n=5); Capan-2 concentration (n=3); MIA PaCa-2±siSCR/siNQO1 (n=3); hTERT-HPNE (n=3); PANC-1 (n=3); AsPC-1 (n=4); BxPC-3 (n=3); MIA PaCa-2 time (n=3); Capan-2 time (n=3). The reported values are the results of the following sample sizes for β-lap±DIC: MIA PaCa-2 (n=4) and Capan-2 (n=4).
# Capan-2 cells = assay: DNA content assay (relative survival), Capan-2; details: 2 h
# Protocol: as §1
Structure (SMILES),dose reduction index (DRI) (MIA PaCa-2 cells [1]),concentration up to which no appreciable toxicity was induced (MIA PaCa-2 cells [2]),concentration up to which no appreciable toxicity was induced (Capan-2 cells)
"Cn1ncnc1[C@H]1c2n[nH]c(=O)c3cc(F)cc(c23)N[C@@H]1c1ccc(F)cc1 [BMN 673, talazoparib]",3.99,–,–
"CC1(C)CCC2=C(O1)c1ccccc1C(=O)C2=O [β-lap, β-lapachone]",–,up to 2.0 μM,up to 1.0 μM

# From patent US12128050B2, “KP372-1-induced DNA damage as a chemotherapeutic approach to treat cancer” (New Mexico Tech University Research Park Corporation, priority 2020, dated 2024)
